{"source": "patent US20100254946A1", "about": "“MAINTENANCE OF HAIR GROWTH AND TREATMENT OF HAIR-LOSS” (LIFE & BRAIN GMBH, priority 2007, published 2010)", "origin": "cited, not measured here", "key": {"P2Y5 receptor": {"biological_target": "T1, P2Y5 receptor (Homo sapiens, UniProt P43657)", "T1 sequence (P43657 1-344)": "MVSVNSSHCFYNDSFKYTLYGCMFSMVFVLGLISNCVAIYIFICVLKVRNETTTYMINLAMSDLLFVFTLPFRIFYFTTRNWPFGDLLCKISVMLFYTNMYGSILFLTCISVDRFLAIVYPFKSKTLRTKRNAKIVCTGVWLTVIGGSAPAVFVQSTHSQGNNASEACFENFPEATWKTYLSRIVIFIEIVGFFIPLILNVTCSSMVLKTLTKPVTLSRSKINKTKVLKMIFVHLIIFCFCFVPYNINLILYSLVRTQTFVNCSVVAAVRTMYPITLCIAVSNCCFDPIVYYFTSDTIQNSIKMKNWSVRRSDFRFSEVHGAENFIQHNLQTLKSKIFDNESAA"}, "hair growth": {"tested_on": "hair growth", "conditions": "mouse model, previously shown"}, "[1]": {"biological_target": "T2, P2Y5 mutant p.Lys125AsnfsX37 (Homo sapiens, UniProt P43657)", "T2 construct": "premature termination of translation of the P2Y5 receptor protein (p.Lys125AsnfsX37; expressed in transfected cells; vector pcDNA5/FRT/V5-His), transiently transfected with pCRE-luc", "T2 sequence (P43657 with tags, fused parts or gaps)": "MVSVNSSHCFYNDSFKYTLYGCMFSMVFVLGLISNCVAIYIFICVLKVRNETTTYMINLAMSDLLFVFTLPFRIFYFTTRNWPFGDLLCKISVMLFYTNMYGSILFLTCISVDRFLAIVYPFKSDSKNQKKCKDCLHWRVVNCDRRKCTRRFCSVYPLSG", "conditions": "P2Y5 mutant p.Lys125AsnfsX37, LPA used as ligand"}}, "note": "“Also recorded” adds a separate entry of the source.", "data": [{"smiles": "CCCCCCCC/C=C\\CCCCCCCC(=O)OC[C@@H](O)COP(=O)(O)O", "note": "[LPA, oleoyl-L-alpha-lysophosphatidic acid]", "values": [{"measurement": "ligand for the P2Y5 receptor", "setting": "P2Y5 receptor", "result": "is a ligand of the P2Y5 receptor; also recorded: is a ligand for the P2Y5 receptor"}, {"measurement": "stimulation of hair growth", "setting": "hair growth", "result": "stimulate hair growth in vivo"}, {"measurement": "activation of a CRE luciferase reporter gene", "setting": "[1]", "result": "not capable of activating a CRE luciferase reporter gene"}]}]}
